Test results from US6632834B2, “Compositions and methods for treating conditions responsive to estrogen” (Pfizer Inc., priority 2000, dated 2003).

Tests used:
[1] = tested on: MCF-7 cells; assay: Inhibition of in vitro human breast tumor cell growth (direct cell counts), ER-positive cells; assay type: cell-based; settings: MCF-7 (ER-positive), 6 days incubation
Procedure: (§1) The in vitro antiproliferative effects of (−)-cis-6-phenyl-5-[4-(2-pyrrolidin-1-yl-ethoxy)-phenyl]-5,6,7,8-tetrahydro-naphthalene-2-ol (PPTN) were tested using two types of human breast cancer cell lines: first, MCF-7 cells, which contain ER as well as progesterone receptors (PgR), and second, MDA-MB-231 cells, which lack ER and PgR, and enable the determination of an effect that is independent of the ER mechanism. The effect of PPTN on the growth of these different cell lines was determined by incubation of the cells with various compound concentrations for 6 days.
(§2) The antiproliferative effects were then determined by direct cell counts. PPTN inhibited the growth of the ER-positive cell line MCF-7.

[2] = tested on: MDA-MB-231 cells; assay: Inhibition of in vitro human breast tumor cell growth (direct cell counts), ER-negative cells; assay type: cell-based; settings: MDA-MB-231 (ER-negative), 6 days incubation
Procedure: as §1, §2

Oc1ccc2c(c1)CC[C@H](c1ccccc1)[C@@H]2c1ccc(OCCN2CCCC2)cc1 [PPTN, (−)-cis-6-phenyl-5-[4-(2-pyrrolidin-1-yl-ethoxy)-phenyl]-5,6,7,8-tetrahydro-naphthalene-2-ol]
IC50 for growth inhibition [1]: 3 to 5×10^−11 M | inhibition of cell proliferation [2]: did not inhibit cell proliferation
